Target: T1, eIF3d and eIF4G2 complex (Homo sapiens, UniProt O15371)
T1 construct: both recombinant from E. coli, 6xHis tags cut by TEV; full-length human eIF4G2; with Eukaryotic translation initiation factor 4 gamma 2
Experiment: fluorescence anisotropy competition with fluorescein-labelled m7G-capped […]'UTR RNA
Format: binding
Conditions: 20 mM Hepes-KOH pH 7.5, 100 mM KCl, 1 mM MgCl2, 25 C, cap analog competing with 10 nM capped CD101, ITGAE or ACTB RNA, m7GDP concentration not given, ligand site assigned to the eIF3d c

T1 sequence (O15371 whole entry): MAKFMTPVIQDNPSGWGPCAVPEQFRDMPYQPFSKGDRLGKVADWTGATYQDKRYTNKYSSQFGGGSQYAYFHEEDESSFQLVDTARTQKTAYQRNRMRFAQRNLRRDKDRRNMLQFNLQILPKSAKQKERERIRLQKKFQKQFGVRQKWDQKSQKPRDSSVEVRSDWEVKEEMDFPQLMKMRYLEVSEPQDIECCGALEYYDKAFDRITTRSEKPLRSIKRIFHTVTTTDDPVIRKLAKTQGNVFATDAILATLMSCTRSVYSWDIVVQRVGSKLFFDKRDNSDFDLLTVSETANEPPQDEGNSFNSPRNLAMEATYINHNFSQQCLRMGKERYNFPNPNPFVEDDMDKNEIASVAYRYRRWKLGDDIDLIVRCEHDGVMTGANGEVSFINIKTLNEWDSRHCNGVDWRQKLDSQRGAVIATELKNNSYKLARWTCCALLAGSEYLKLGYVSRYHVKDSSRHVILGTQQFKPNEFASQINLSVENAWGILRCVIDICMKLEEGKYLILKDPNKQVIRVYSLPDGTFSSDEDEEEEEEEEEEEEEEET
T1 sequence (P78344 whole entry partner): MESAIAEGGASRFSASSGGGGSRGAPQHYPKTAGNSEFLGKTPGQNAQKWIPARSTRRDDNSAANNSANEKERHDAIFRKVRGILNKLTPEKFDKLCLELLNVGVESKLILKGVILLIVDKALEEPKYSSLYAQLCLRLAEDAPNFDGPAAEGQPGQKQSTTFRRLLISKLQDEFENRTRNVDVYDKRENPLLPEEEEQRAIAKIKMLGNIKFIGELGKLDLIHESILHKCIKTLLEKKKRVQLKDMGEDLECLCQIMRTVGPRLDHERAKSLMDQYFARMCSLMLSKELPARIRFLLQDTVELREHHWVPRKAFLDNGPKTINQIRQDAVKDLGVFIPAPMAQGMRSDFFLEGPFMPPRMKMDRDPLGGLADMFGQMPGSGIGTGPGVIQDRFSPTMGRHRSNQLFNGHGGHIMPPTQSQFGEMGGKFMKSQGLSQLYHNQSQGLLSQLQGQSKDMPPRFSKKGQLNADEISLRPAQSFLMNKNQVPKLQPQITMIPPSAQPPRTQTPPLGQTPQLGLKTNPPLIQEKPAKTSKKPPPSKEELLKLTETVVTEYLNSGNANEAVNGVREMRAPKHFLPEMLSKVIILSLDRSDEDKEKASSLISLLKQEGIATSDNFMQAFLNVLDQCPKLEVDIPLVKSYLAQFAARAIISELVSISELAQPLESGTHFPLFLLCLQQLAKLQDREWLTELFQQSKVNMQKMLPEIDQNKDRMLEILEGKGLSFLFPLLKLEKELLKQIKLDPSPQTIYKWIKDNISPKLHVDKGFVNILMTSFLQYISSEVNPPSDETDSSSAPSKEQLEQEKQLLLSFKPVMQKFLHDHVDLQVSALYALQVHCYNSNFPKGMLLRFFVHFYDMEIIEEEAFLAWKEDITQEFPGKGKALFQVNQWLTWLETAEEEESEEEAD

C[n+]1cn([C@@H]2O[C@H](COP(=O)(O)OP(=O)(O)O)[C@@H](O)[C@H]2O)c2nc(N)[nH]c(=O)c21 [m^7GDP]
fluorescence anisotropy competition with fluorescein-labelled m7G-capped 5'UTR R: reduction in the binding affinity of the eIF3d/eIF4G2 complex to the m^7G cap was also observed

— paper PMC11968281, “eIF3d and eIF4G2 mediate an alternative mechanism of cap-dependent but eIF4E-independent translation initiation” (The Journal of Biological Chemistry, 2025)
